“Also recorded” adds a separate entry of the source.
Experiments:
Rho^P23H mice = experiment: Photoreceptor degeneration in Rho^P23H mice: histology and qPCR at P21; type: in vivo, mouse; settings: 10 mg/kg i.p. from P12-P14 until P21, vs DMSO vehicle
Method: FIG. 3A illustrates the timeline of photoreceptor degeneration in the Rhodopsin^P23H mouse and experimental design.
To determine whether photoreceptor degeneration can be prevented, Rho^P23H mice were treated with PR3 or vehicle from P12-P14 until P21, during the period of rod photoreceptor death (FIG. 3A). At P21, visual function was assessed with ERGs and euthanized the mice for histological and qPCR analyses. At P21, control Rho^P23H mice had only 2-3 rows of photoreceptors remaining in their ONL (FIGS. 3B and 3C). Rods were sparse and there were few remaining cones (S Opsin+ and Cone Arrestin+ photoreceptors). Control Rho^P23H mice had minimal scotopic and photopic b-wave amplitudes by ERG analysis (FIGS. 4A, 4B, 4D, and 4E). […]
Photoregulin3 was identified by searching previous small molecule screens with SciFinder and PubChem for Nr2e3 interacting molecules. It was initially obtained from ChemDiv and then synthesized and purified in large quantities in the lab after initial screening. […]
(§1) RNA from retinas was isolated using TRIzol (Invitrogen) and cDNA was synthesized using the iScript cDNA synthesis kit (Bio-Rad). SSO Fast (Bio-Rad) was used for quantitative real-time PCR. For analysis, values were normalized to Gapdh (ΔCt) and ΔΔCt between DMSO and compound-treated samples was expressed as percent of DMSO treated controls (100*2^ΔΔCt). […]

Nr2e3-NCOR dimer complex = target: T1, Nr2e3-NCOR dimer complex (Homo sapiens, UniProt Q9Y5X4); settings: PubChem Assay IDs 602229, 624378, 624394, 651849; cited from earlier work
T1 construct: expressed in transfected cells; host or cells: CHO-S cells
T1 sequence (Q9Y5X4 whole entry, one chain of several): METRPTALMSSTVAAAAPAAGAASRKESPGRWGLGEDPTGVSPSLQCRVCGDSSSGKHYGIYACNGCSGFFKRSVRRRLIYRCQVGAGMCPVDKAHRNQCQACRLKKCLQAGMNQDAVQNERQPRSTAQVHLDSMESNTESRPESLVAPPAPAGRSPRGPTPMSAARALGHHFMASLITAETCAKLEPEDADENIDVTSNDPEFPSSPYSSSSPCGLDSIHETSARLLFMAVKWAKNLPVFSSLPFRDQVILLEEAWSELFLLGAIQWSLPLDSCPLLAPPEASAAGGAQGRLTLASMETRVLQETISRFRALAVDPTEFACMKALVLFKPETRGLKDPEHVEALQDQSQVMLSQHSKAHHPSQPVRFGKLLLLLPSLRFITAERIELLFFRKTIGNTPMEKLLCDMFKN

Rhodopsin = Rhodopsin mRNA expression (qPCR) in dissociated retinal cell cultures; type: cell-based; settings: P5 mouse dissociated retinal cultures, 2 days treatment, vs DMSO and PR1
Description: In order to identify compounds that may target Nr2e3 a cheminformatic strategy was used to screen hit compounds previously identified to interact with recombinant Nr2e3 in transfected CHO-S cells in a luciferase-based assay (PubChem Assay IDs: 602229, 624378, 624394, and 651849). As a secondary screen for initial hits, dissociated primary retinal cell cultures were used and assayed Rhodopsin, because it is a well-defined target of Nr2e3 signaling and is expressed at high levels exclusively in rod photoreceptors. Retina were dissociated from postnatal day 5 (P5) mice and cultured them in media containing the small molecules. After treatment for 2 days, the cells were collected for qPCR analysis and quantified Rhodopsin expression. […] This finding was confirmed with an immunofluorescence assay to examine Rhodopsin protein expression in dissociated retinal cultures from P5 mice. […]
as §1

For `COc1cc2nc(CN3CC=C(c4ccccc4)CC3)nc(O)c2cc1OC` [PR3], the “expression of photoreceptor genes in whole retinas (qPCR)” value (Rho^P23H mice) is listed as “greater expression of photoreceptor genes Recoverin, Rhodopsin, and S Opsin; also recorded: more expression of Recoverin and Rhodopsin”, the “rows of photoreceptors (DAPI+ cells) in the ONL” value (Rho^P23H mice) is listed as “greater survival of photoreceptors; also recorded: several rows of rod and cone photoreceptors in the ONL” and the “modulation of Nr2e3 in luciferase-based assay” value (Nr2e3-NCOR dimer complex) is listed as “identified as a chemical modulator of Nr2e3”. For the same compound, the “Rhodopsin mRNA expression” value (Rhodopsin) was “robust reduction in Rhodopsin compared to DMSO and PR1 treatment at all concentrations”.
